In patent publication US20260285850A1, “SUBSTITUTED OXAZOLIDINONES AND IMIDAZOLINONES AS HERBICIDES” (FMC CORPORATION, priority 2023, published 2026):

How the values were obtained:
Format in all cases: in vivo
[1] = system: ryegrass, Italian (italian ryegrass, Lolium multiflorum); experiment: Test A postemergence application, visual injury rating 0-100
Summary of the method: (§1)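 Seeds sown in loam-sand blend got a preemergence directed soil spray, or emerged plants (2-10 cm, one- to two-leaf) got a postemergence spray, of compound in non-phytotoxic solvent with surfactant. After 10 days in greenhouse, injury rated visually versus untreated controls on a 0 (no effect) to 100 (complete control) scale.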

[2] = system: horseweed (Erigeron canadensis); experiment: as above
Summary of the method: as §1

[3] = system: oat, wild (wild oat, Avena fatua); experiment: as above
Summary of the method: as §1

[4] = system: blackgrass (Alopecurus myosuroides); experiment: as above
Summary of the method: as §1

[5] = system: galium (catchweed bedstraw, Galium aparine); experiment: as above
Summary of the method: as §1

corn (Zea mays) [6] = experiment: as above
Summary of the method: as §1

[7] = system: barnyardgrass (Echinochloa crus-galli); experiment: as above
Summary of the method: as §1

[8] = system: green foxtail (Setaria viridis); experiment: as above
Summary of the method: as §1

[9] = system: wheat (Triticum aestivum); experiment: as above
Summary of the method: as §1

kochia (Bassia scoparia) [10] = experiment: as above
Summary of the method: as §1

[11] = system: ragweed (common ragweed, Ambrosia artemisiifolia); experiment: as above
Summary of the method: as §1

soybean (Glycine max) [12] = experiment: as above
Summary of the method: as §1

[13] = system: palmer (palmer amaranth, palmer pigweed, Amaranthus palmeri); experiment: as above
Summary of the method: as §1

[14] = system: ryegrass, Italian (italian ryegrass, Lolium multiflorum); experiment: Test A preemergence soil spray, visual injury rating 0-100; settings: 10 days
Summary of the method: as §1

[15] = system: oat, wild (wild oat, Avena fatua); experiment: as above; settings: 10 days
Summary of the method: as §1

[16] = system: blackgrass (Alopecurus myosuroides); experiment: as above; settings: 10 days
Summary of the method: as §1

corn (Zea mays) [17] = experiment: as above; settings: 10 days
Summary of the method: as §1

[18] = system: barnyardgrass (Echinochloa crus-galli); experiment: as above; settings: 10 days
Summary of the method: as §1

[19] = system: green foxtail (Setaria viridis); experiment: as above; settings: 10 days
Summary of the method: as §1

[20] = system: wheat (Triticum aestivum); experiment: as above; settings: 10 days
Summary of the method: as §1

kochia (Bassia scoparia) [21] = experiment: as above; settings: 16 g ai/ha, 0 to 100 scale, 10 days
Summary of the method: as §1

[22] = system: ragweed (common ragweed, Ambrosia artemisiifolia); experiment: as above; settings: 10 days
Summary of the method: as §1

soybean (Glycine max) [23] = experiment: as above; settings: 10 days
Summary of the method: as §1

[24] = system: palmer (palmer amaranth, palmer pigweed, Amaranthus palmeri); experiment: as above; settings: 10 days
Summary of the method: as §1

[25] = system: barnyardgrass (Echinochloa crusgalli); experiment: Test B flooded paddy test, visual plant response rating 0-100; settings: 250 g ai/ha, Flood, applied to paddy water, evaluated after 13 days
Summary of the method: (§2)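 Plants were grown to the 2-leaf stage, then pots were flooded to 3 cm above the soil and compound was applied directly to the paddy water, with that depth kept throughout.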

[26] = system: ducksalad (Heteranthera limosa); experiment: as above; settings: 250 g ai/ha, Flood, applied to paddy water, evaluated after 13 days
Summary of the method: as §2

[27] = system: sedge, umbrella (small-flower umbrella sedge, Cyperus difformis); experiment: as above; settings: 250 g ai/ha, Flood, applied to paddy water, evaluated after 13 days
Summary of the method: as §2

rice (Oryza sativa) = experiment: as above; settings: 250 g ai/ha, Flood, applied to paddy water, evaluated after 13 days
Summary of the method: as §2

[28] = 62 g ai/ha, postemergence, 10 days, 0 = no effect, 100 = complete control
[29] = Postemergence, 16 g ai/ha, greenhouse 10 days, 0 no effect, 100 complete control
[30] = 62 g ai/ha, 0 = no effect, 100 = complete control

SMILES: Cc1cc(C)cc(N2CC(C)(C(=O)NC3C=CC(C(=O)O)C3)OC2=O)c1 (stereo not drawn) [Compound 126]
- Ryegrass, Italian plant response rating (0-100) [1, 28]: 60
- Ryegrass, Italian plant response rating (0 to 100 scale) [1, 29]: 30
- Horseweed plant response rating (0-100) [2, 28]: 20
- Horseweed plant response rating (0 to 100 scale) [2, 29]: 0
- Oat, Wild plant response rating (0-100) [3, 28]: 90
- Oat, Wild plant response rating (0 to 100 scale) [3, 29]: 30
- Blackgrass plant response rating (0-100) [4, 28]: 90
- Blackgrass plant response rating (0 to 100 scale) [4, 29]: 60
- Galium plant response rating (0-100) [5, 28]: 80
- Galium plant response rating (0 to 100 scale) [5, 29]: 70
- Corn plant response rating (0-100) (corn (Zea mays) [6]; [28]): 100
- Corn plant response rating (0 to 100 scale) (corn (Zea mays) [6]; [29]): 20
- Barnyardgrass plant response rating (0-100) [7, 28]: 90
- Barnyardgrass plant response rating (0 to 100 scale) [7, 29]: 50
- Foxtail, Green plant response rating (0-100) [8, 28]: 30
- Foxtail, Green plant response rating (0 to 100 scale) [8, 29]: 0
- Wheat plant response rating (0-100) [9, 28]: 90
- Wheat plant response rating (0 to 100 scale) [9, 29]: 30
- Kochia plant response rating (0-100) (kochia (Bassia scoparia) [10]; [28]): 30
- Kochia plant response rating (0 to 100 scale) (kochia (Bassia scoparia) [10]; [29]): 0
- Ragweed plant response rating (0-100) [11, 28]: 30
- Ragweed plant response rating (0 to 100 scale) [11, 29]: 0
- Soybean plant response rating (0-100) (soybean (Glycine max) [12]; [28]): 60
- Soybean plant response rating (0 to 100 scale) (soybean (Glycine max) [12]; [29]): 0
- Pigweed, Palmer plant response rating (0-100) [13, 28]: 30
- Pigweed, Palmer plant response rating (0 to 100 scale) [13, 29]: 10
- Ryegrass, Italian plant response rating ([14]; 16 g ai/ha, 0 to 100 scale): 0
- Ryegrass, Italian plant response rating (0-100) [14, 30]: 40
- Oat, Wild plant response rating ([15]; 16 g ai/ha, 0 to 100 scale): 0
- Oat, Wild plant response rating (0-100) [15, 30]: 30
- Blackgrass plant response rating ([16]; 16 g ai/ha, 0 to 100 scale): 0
- Blackgrass plant response rating (0-100) [16, 30]: 40
- Corn plant response rating (corn (Zea mays) [17]; 16 g ai/ha, 0 to 100 scale): 0
- Corn plant response rating (0-100) (corn (Zea mays) [17]; [30]): 40
- Barnyardgrass plant response rating ([18]; 16 g ai/ha, 0 to 100 scale): 10
- Barnyardgrass plant response rating (0-100) [18, 30]: 90
- Foxtail, Green plant response rating ([19]; 16 g ai/ha, 0 to 100 scale): 0
- Foxtail, Green plant response rating (0-100) [19, 30]: 10
- Wheat plant response rating ([20]; 16 g ai/ha, 0 to 100 scale): 20
- Wheat plant response rating (0-100) [20, 30]: 90
- Kochia plant response rating (kochia (Bassia scoparia) [21]): 0
- Ragweed plant response rating ([22]; 16 g ai/ha, 0 to 100 scale): 0
- Ragweed plant response rating (0-100) [22, 30]: 0
- Soybean plant response rating (soybean (Glycine max) [23]; 16 g ai/ha, 0 to 100 scale): 0
- Soybean plant response rating (0-100) (soybean (Glycine max) [23]; [30]): 0
- Pigweed, Palmer plant response rating ([24]; 16 g ai/ha, 0 to 100 scale): 20
- Pigweed, Palmer plant response rating (0-100) [24, 30]: 50
- Plant response rating, Barnyardgrass (0 to 100 scale, 0 is no effect and 100 is complete control) [25]: 25
- Plant response rating, Ducksalad (0 to 100 scale, 0 is no effect and 100 is complete control) [26]: 55
- Plant response rating, Sedge, Umbrella (0 to 100 scale, 0 is no effect and 100 is complete control) [27]: 35
- Plant response rating, Rice (0 to 100 scale, 0 is no effect and 100 is complete control) (rice (Oryza sativa)): 5
